Assay results as given in patent US20240000863A1, “Skin Probiotics” (The Regents of the University of California, priority 2021, published 2024).

Assays:
KLK5 = biological target: T1, KLK5 (Homo sapiens, UniProt Q9Y337); test: KLK5 inhibition assay (Acetyl-YASR-paranitroanilide, absorbance 405 nm); assay type: biochemical; settings: over 30 minutes; leupeptin at 100 uM
T1 sequence (Q9Y337 23-293): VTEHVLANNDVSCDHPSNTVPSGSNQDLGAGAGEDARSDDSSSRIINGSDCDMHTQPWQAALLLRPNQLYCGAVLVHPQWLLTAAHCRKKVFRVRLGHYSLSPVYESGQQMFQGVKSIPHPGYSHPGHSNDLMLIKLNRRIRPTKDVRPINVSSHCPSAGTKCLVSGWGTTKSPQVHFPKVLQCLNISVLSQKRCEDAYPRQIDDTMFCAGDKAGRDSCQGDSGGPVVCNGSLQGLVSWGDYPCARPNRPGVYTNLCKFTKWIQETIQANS
Procedure: The KLK5 inhibition assay is the foremost method to determine inhibition of KLK5. In the assay, KLK5 is incubated with the substrate Acetyl-YASR-paranitroanilide Uninhibited, KLK5 cleaves the substrate Acetyl-YASR at the arginine position […], releasing para-nitroanilide, a chromophore with absorbance 405 nm, resulting in increased absorption at that wavelength. When inhibited, the substrate Acetyl-YASR-paranitroanilide remains intact, and there is no increase in absorption at 405 nm. As a positive control, we used the absence of any inhibitor and the addition of purified Red Fluorescent Protein (RFP). As negative controls, we used a substrate only addition (no KLK5 is added) as well as a 100 uM addition of purified leupeptin, which is known to inhibit KLK5 at high concentrations.

[1] = biological target: T2, KLK5 protein (kallikrein 5) (UniProt Q9Y337 67-293, limits assumed); test: cell-based or functional assay
T2 sequence (looked up): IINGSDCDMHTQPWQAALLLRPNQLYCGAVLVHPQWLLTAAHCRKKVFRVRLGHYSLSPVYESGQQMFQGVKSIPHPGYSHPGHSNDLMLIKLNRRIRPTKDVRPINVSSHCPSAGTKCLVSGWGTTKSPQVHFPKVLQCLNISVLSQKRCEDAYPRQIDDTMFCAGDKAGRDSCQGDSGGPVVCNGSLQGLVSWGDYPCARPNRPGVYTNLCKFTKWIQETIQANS

Molecule: CC(=O)N[C@@H](CC(C)C)C(=O)N[C@@H](CC(C)C)C(=O)N[C@H](C=O)CCCNC(=N)N [leupeptin]
- change of absorbance at 405 nm (KLK5): very little increasing absorbance

B1: LEKTI-D6 protein (lymphoepithelial Kazal-Type-related protease inhibitor, domain 6), secreted by C. glutamicum and purified (other)
chain: MESGKATSYAELCNEYRKLVRNGKLACTRENDPIQGPDGKVHGNTCSMCEVFFQAEEEEKKKKEGESRNKR
- KLK5 inhibition assay (cleavage of Acetyl-YASR-paranitroanilide, absorbance at 405 nm), IC50 [1]: 89 nM
